The source of these data is patent publication US20200000842A1, “COMPOSITION AND METHOD FOR IMPROVING QOL WITH MOLECULAR HYDROGEN IN CANCER- HAVING SUBJECT” (MiZ Company Limited, priority 2018, published 2020).

Series [1] relates to patient with terminal systemic metastatic cancer. Conditions: person, 3 times about 2 hours each over about 1 month. The protocol: A patient with terminal systemic metastatic cancer (person) breathed a mixed gas of hydrogen and air using a gaseous hydrogen inhalation apparatus (MHG-2000α (registered trademark); MiZ Company Limited, Kanagawa, Japan) total 3 times for about 2 hours each time over about 1 month before death of the patient. The hydrogen concentration in MHG-2000α is about 6 to 7% by volume (hydrogen generation rate: about 140 ml/min).

In series [2] the test system is patient with stage 4 terminal pancreatic cancer. The protocol: A patient with stage 4 terminal pancreatic cancer (person) breathed a mixed gas of hydrogen and air using a gaseous hydrogen inhalation apparatus (MHG-2000α (registered trademark); MiZ Company Limited) for about 1 to 3 hours per day over about 8 months. The hydrogen concentration in MHG-2000α is about 6 to 7% by volume (hydrogen generation rate: about 140 ml/min).

The subject of series [3] is patient with terminal pancreatic cancer. Conditions: person. As for the experimental part: A patient with terminal pancreatic cancer (person) breathed a mixed gas of hydrogen and air using a gaseous hydrogen inhalation apparatus (MHG-2000α (registered trademark); MiZ Company Limited) over about 4 months. Here, the mixed gas of hydrogen and air was breathed twice a week (duration each time: 1 to 3 hours) over first 2 months and for about 24 hours per day over subsequent 2 months. The hydrogen concentration in MHG-2000α is about 6 to 7% by volume (hydrogen generation rate: about 140 ml/min).

The conditions of series [4]: normal temperature and normal pressure; cited from earlier work.
The mark [5] stands for this setting: about 6 to 7% by volume hydrogen.
Setting [6] is: about 6 to 7% by volume hydrogen over about 4 months.

SMILES strings stand for the structures.

For `[HH]` [hydrogen gas, molecular hydrogen], in series [1] (setting [5]), the appetite entry is listed as “recovered” and the complexion entry is given as “improved”. For the same molecule, the cancerous pain entry in series [1] (mixed gas of hydrogen and air, about 6 to 7% by volume, no opioid) is listed as “reduced”. In addition, the “blood level of CA19-9 (pancreatic cancer marker)” value in series [2] (about 6 months after the breathing of hydrogen gas, FIG. 1) is “sharply decreased”. Moreover, in series [2] (after the first breathing), the physical fatigue result is reported as “hardly complained about physical fatigue”. Moreover, the “survival after being told life expectancy of 3 months” value in series [2] (person, stage 4, breathing about 1 to 3 hours per day) is listed as at least 9 months. In series [2] (person, about 6 to 7% by volume hydrogen, about 1 to 3 hours per day over about 8 months), the “growth of cancer by CT imaging examination once a month” value is listed as “no tendency of growth of cancer”. In addition, in series [3] (setting [6]), the appetite result was “had appetite” and the insomnia result is recorded as “improved in insomnia”. In series [3] (about 6 to 7% by volume hydrogen over about 4 months (twice a week 1 to 3 hours for 2 months, then about 24 hours per day for 2 months), no opioid), the cancerous pain result is “did not complain about pain or oppression”. Also, the solubility in water result in series [4] was “about 1.6 ppm”.
